From ChEMBL document CHEMBL4699443, “Position of lipidation influences anticancer activity of Smac analogs” (Bioorg Med Chem Lett, 2019)
Each block holds one compound with its values, some of them ahead of it. Starred links: 1 amine or outer side, 2 acyl side, 3 side chain; linkers in the order of their positions; H or OH if unused. Non-standard residues stand in square brackets, D forms with d. Residues, ends and D or L forms follow the SMILES beside them. *: point of attachment. Pro(cis-4-OPh) = O=C(O)[C@@H]1C[C@H](Oc2ccccc2)CN1; Bip = N[C@@H](Cc1ccc(-c2ccccc2)cc1)C(=O)O; X2 = CCCCCCCCCCCCCCCCCCS(=O)(=O)CCN*; Cysteamide = C(CS[*:3])N[*:1]; Tle = CC(C)(C)[C@H](N)C(=O)O; NMeA = CN[C@@H](C)C(=O)O

Key:
Format in all cases: functional, cell-based
[1] = system: NALM-6; assay: Antiproliferative activity against human NALM6 cells assessed as growth inhibition after 48 hrs by PrestoBlue dye based fluorescence assay; conditions: NALM-6, 48 h
[2] = Antiproliferative activity against human CEM-R cells assessed as growth inhibition after 48 hrs by PrestoBlue dye based fluorescence assay
[3] = system: SK-MEL-28; assay: Antiproliferative activity against human SK-MEL-28 cells assessed as growth inhibition after 48 hrs by PrestoBlue dye based fluorescence assay; conditions: SK-MEL-28, 48 h
[4] = system: HCC1954; assay: Antiproliferative activity against human HCC1954 cells assessed as growth inhibition after 48 hrs by PrestoBlue dye based fluorescence assay; conditions: HCC1954, 48 h
[5] = system: VCaP; assay: Antiproliferative activity against human VCap cells assessed as growth inhibition after 48 hrs by PrestoBlue dye based fluorescence assay
[6] = Antiproliferative activity against human UM-SCC-6 cells assessed as growth inhibition after 48 hrs by PrestoBlue dye based fluorescence assay; conditions: UM-SCC-6, 48 h
[7] = system: FaDu; assay: Antiproliferative activity against human FADU cells assessed as growth inhibition after 48 hrs by PrestoBlue dye based fluorescence assay
[8] = system: MCF7; assay: Antiproliferative activity against human MCF7 cells assessed as growth inhibition after 48 hrs by PrestoBlue dye based fluorescence assay; conditions: MCF7, 48 h
[9] = system: T84; assay: Antiproliferative activity against human T84 cells assessed as growth inhibition after 48 hrs by PrestoBlue dye based fluorescence assay; conditions: T84, 48 h
[10] = Antiproliferative activity against human COLO357/FG cells assessed as growth inhibition after 48 hrs by PrestoBlue dye based fluorescence assay; conditions: COLO 357/FG
[11] = system: MOLT-4; assay: Antiproliferative activity against human MOLT-4 cells assessed as growth inhibition after 48 hrs by PrestoBlue dye based fluorescence assay; conditions: MOLT-4, 48 h
[12] = system: SW480; assay: Antiproliferative activity against human SW480 cells assessed as growth inhibition after 48 hrs by PrestoBlue dye based fluorescence assay; conditions: SW480, 48 h
[13] = system: DU-145; assay: Antiproliferative activity against human DU145 cells assessed as growth inhibition after 48 hrs by PrestoBlue dye based fluorescence assay; conditions: DU-145, 48 h
[14] = Antiproliferative activity against human BTTR cells assessed as growth inhibition after 48 hrs by PrestoBlue dye based fluorescence assay
[15] = Antiproliferative activity against human M249 cells assessed as growth inhibition after 48 hrs by PrestoBlue dye based fluorescence assay; conditions: M249, 48 h
[16] = system: BXPC-3; assay: Antiproliferative activity against human BxPC3 cells assessed as growth inhibition after 48 hrs by PrestoBlue dye based fluorescence assay; conditions: BXPC-3, 48 h
[17] = system: MDA-MB-231; assay: Antiproliferative activity against human MDA-MB-231 cells assessed as growth inhibition after 48 hrs by PrestoBlue dye based fluorescence assay; conditions: MDA-MB-231, 48 h
[18] = Antiproliferative activity against human UM-SCC-5 cells assessed as growth inhibition after 48 hrs by PrestoBlue dye based fluorescence assay; conditions: UM-SCC-5, 48 h
[19] = system: HepG2; assay: Antiproliferative activity against human HepG2 cells assessed as growth inhibition after 48 hrs by PrestoBlue dye based fluorescence assay; conditions: HepG2, 48 h
[20] = system: PC-3; assay: Antiproliferative activity against human PC-3 cells assessed as growth inhibition after 48 hrs by PrestoBlue dye based fluorescence assay; conditions: PC-3, 48 h
[21] = system: LNCaP; assay: Antiproliferative activity against human LNCAP cells assessed as growth inhibition after 48 hrs by PrestoBlue dye based fluorescence assay
[22] = Antiproliferative activity against human UM-SCC-12 cells assessed as growth inhibition after 48 hrs by PrestoBlue dye based fluorescence assay; conditions: UM-SCC-12, 48 h
[23] = Antiproliferative activity against human CEMTL cells assessed as growth inhibition after 48 hrs by PrestoBlue dye based fluorescence assay; conditions: CEM-TL
[24] = system: PANC-1; assay: Antiproliferative activity against human PANC-1 cells assessed as growth inhibition after 48 hrs by PrestoBlue dye based fluorescence assay; conditions: PANC-1, 48 h
[25] = system: HCT-116; assay: Antiproliferative activity against human HCT116 cells assessed as growth inhibition after 48 hrs by PrestoBlue dye based fluorescence assay; conditions: HCT-116, 48 h
[26] = system: Hep 3B2; assay: Antiproliferative activity against human Hep3B cells assessed as growth inhibition after 48 hrs by PrestoBlue dye based fluorescence assay

EC50 [3]: 6.1 µM
EC50 [4]: 3.9 µM
EC50 [5]: 7 µM
EC50 [8]: 10.2 µM
EC50 [11]: 2.8 µM
EC50 [12]: 9.2 µM
EC50 [13]: 6.2 µM
EC50 [16]: 4.1 µM
EC50 [17]: 6 µM
SMILES: CN[C@@H](C)C(=O)N[C@H](C(=O)N1C[C@@H](Oc2ccccc2)C[C@H]1C(=O)N[C@@H](Cc1ccc(-c2ccccc2)cc1)C(=O)NCCS)C(C)(C)C (H-[NMeA][Tle][Pro(cis-4-OPh)][Bip]-Cysteamide)
EC50 [1]: 5.3 µM
EC50 [2]: 2.9 µM
EC50 [6]: 6 µM
EC50 [7]: 3.9 µM
EC50 [9]: 6.2 µM
EC50 [10]: 8 µM
EC50 [14]: 9 µM
EC50 [15]: 6.2 µM
EC50 [18]: 5.9 µM

EC50 [19]: 2.1 µM
EC50 [20]: 2.3 µM
EC50 [21]: 10.5 µM
EC50 [3]: 11.3 µM
EC50 [8]: 48.2 µM
EC50 [24]: 4.7 µM
EC50 [12]: 25.7 µM
EC50 [25]: 1.5 µM
SMILES: CCCCCCCCCCCCCCCCCCS(=O)(=O)CCNC(=O)[C@H](Cc1ccc(-c2ccccc2)cc1)NC(=O)[C@@H]1C[C@H](Oc2ccccc2)CN1C(=O)[C@@H](NC(=O)[C@H](C)NC)C(C)(C)C (H-[NMeA][Tle][Pro(cis-4-OPh)][Bip]-X2)
EC50 [22]: 1.1 µM
EC50 [23]: 14.2 µM
EC50 [6]: 4.8 µM
EC50 [7]: 0.64 µM
EC50 [26]: 0.24 µM
